Measurements reported in patent US9540337B2, “Gamma-glutamyl transpeptidase inhibitors and methods of use” (The Board of Regents of the University of Oklahoma, priority 2012, dated 2017).
Where “and” joins values, the source holds several entries; their conditions need not be identical. Equal entries are not always repeated. Where two headings read alike, the source gives them in different places.

Assays:
Human GGT1 (hGGT) [1] = target: T1, Human GGT1 (hGGT) (Homo sapiens, UniProt P19440); assay: D-GpNA Hydrolysis Assay (release of pNA, 405 nm, pH 7.4); details: for Vo (maximum velocity at zero activator) / V∞ (maximum rate at infinite activator): Hydrolysis D-GpNA, Table 3; for maximal fold induction: human
Experimental: (§1) Enzyme Isolation: Human GGT1 (P19440), lacking the transmembrane domain, was expressed in Pichia pastoris and isolated as previously described (14). […] One unit of GGT activity was defined as the amount of enzyme that released 1 μmol of paranitroaniline/min at 37° C. at pH 7.4 in the transpeptidation reaction.
The reaction was initiated with the addition of 19 mU GGT. The reaction was incubated at 37° C. and monitored continuously at 405 nm by a Bio-Rad model 680 microplate reader with Microplate Manager 5.2 software (Bio-Rad, Hercules, Calif.).
Data Analysis: Samples in each experiment were run in triplicate. Each inhibitor was evaluated in two or more independent experiments. Double reciprocal plots were generated to assess data quality and determine the correct rate equation for data fitting. Data were fitted using the proper rate equation and the Marquardt-Levenberg algorithm supplied with the Enzfitter program (BIOSOFT, Cambridge, UK). Kinetic parameters with standard errors were estimated using a simple weighting method.
Data adhering to Michaelis-Menten Kinetics were fitted to eq. 1. Data for initial rate patterns with D-, L-GpNA varied at different fixed levels of glygly were fitted to eq. […] Data for competitive and uncompetitive inhibition were fitted to eqs. 3 and 4. Data for the dependence of Vmax and Vmax/KD-GpNA on the concentration of activator were fitted using eq. 5 (25).
In eqs 1-6, Vmax are the initial and maximum rates, respectively, Ka and Kb are Michaelis constants for substrates A and B, respectively, and Kis and Kii are slope and intercept inhibition constants. In eq. 5, a is the value of Vmax or Vmax/KD-GpNA at zero activator/inhibitor, KID is the activation or inhibition constant, and KIN is a constant that causes the parameter to go to a constant value at infinite concentrations of X, the activator/inhibitor. The product a(KID/KIN) is the value of Vmax or Vmax/KD-GpNA at infinite activator/inhibitor (25). Data for noncompetitive inhibition were fitted to eq. 6. Data for the dependence of Vmax and Vmax/KD-GpNA on the concentration of activator were fitted using […].
as §1, with “hGGT” for “Human GGT1”, “described.” for “described (14).”, “reaction with L-GpNA.” for “reaction.”
D-GpNA Hydrolysis Assay: The assay was carried out as previously described. […] The reaction was initiated with the addition of 19 mU GGT as determined by the L-GpNA transpeptidation assay. The reaction was incubated at 37° C. and monitored continuously at 405 nm.

Human GGT1 (hGGT) [2] = target: T1, Human GGT1 (hGGT); assay: L-GpNA Transpeptidation Assay with GlyGly as acceptor; format: biochemical; design: lacking the transmembrane domain; made in house; host or cells: Pichia pastoris; details: for fold change in L-GpNA Kii (transpeptidation) relative to Compound 16: weaker than Compound 16
Experimental: Transpeptidation Reaction: The same assay buffer was used for both the hydrolysis reaction and the transpeptidation reaction. The transpeptidation reaction included 40 mM glycylglycine (glygly, Sigma, St. Louis, Mo.) as the acceptor. […] The concentration of L-GpNA was 3 mM for experiments in which the concentration of glygly was varied. To initiate the transpeptidation reaction, 4 mU GGT were added.
1. […] 3 and 4. […] 5 (25).
L-GpNA Transpeptidation Assay: The assay has been described previously. […] The concentration of L-GpNA was 3 mM for experiments in which the concentration of GlyGly was varied. To initiate the transpeptidation reaction, 4 mU GGT were added.

hGGT = target: T2, hGGT (Homo sapiens, UniProt P19440); assay: L-Glutamate Release Assay (Hydrolysis of GSH); format: biochemical; details: for Ki: read-out: GSH Kii
T2 construct: lacking the transmembrane domain; made in house; host or cells: Pichia pastoris
Experimental: L-Glutamate Release Assay (Hydrolysis of GSH): This assay measures the production of glutamate from the hydrolysis of GSH by GGT enzyme and has been described in detail previously. The concentration of the substrate, GSH, was varied from 5 μM to 20 μM. The concentration of the inhibitors, OU749 and its analogs, were varied from 15.6 μM to 250 μM. The reaction was initiated with the addition of 10 mU hGGT. […] All compounds were also evaluated as inhibitors of glutamate dehydrogenase, the enzyme in the second half of the L-glutamate release assay. None of the compounds in this study inhibited glutamate dehydrogenase.

[3] = pH 7.4, read-out: Fold Activation
[4] = read-out: activation of the Vmax for hydrolysis (V∞/Vo)
[5] = Table 3, read-out: Transpeptidation GlyGly Kis
[6] = Table 3, read-out: Transpeptidation L-GpNA Kii
[7] = Table 5, read-out: GlyGly with L-GpNA Kis
[8] = Table 5, read-out: L-GpNA with GlyGly Kii

T2 sequence (P19440 381-569 limits assumed): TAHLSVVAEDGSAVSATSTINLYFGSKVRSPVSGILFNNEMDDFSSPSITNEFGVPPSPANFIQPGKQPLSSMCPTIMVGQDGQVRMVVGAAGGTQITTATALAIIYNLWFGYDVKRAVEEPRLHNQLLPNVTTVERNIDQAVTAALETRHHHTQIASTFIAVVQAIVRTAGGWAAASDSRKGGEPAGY
T2 sequence (P19440 27-380 limits assumed): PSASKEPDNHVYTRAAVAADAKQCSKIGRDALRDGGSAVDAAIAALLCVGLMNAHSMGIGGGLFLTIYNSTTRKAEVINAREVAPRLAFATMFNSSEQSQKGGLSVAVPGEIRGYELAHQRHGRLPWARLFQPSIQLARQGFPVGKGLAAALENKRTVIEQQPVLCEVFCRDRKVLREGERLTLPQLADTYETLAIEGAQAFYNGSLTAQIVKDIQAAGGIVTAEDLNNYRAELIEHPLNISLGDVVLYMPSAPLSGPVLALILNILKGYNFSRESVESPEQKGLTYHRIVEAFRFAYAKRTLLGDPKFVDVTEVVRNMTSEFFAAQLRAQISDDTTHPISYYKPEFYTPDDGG
T1 sequence (P19440 381-569 limits assumed): as the sequence (P19440 381-569 limits assumed) above
T1 sequence (P19440 27-380 limits assumed): as the sequence (P19440 27-380 limits assumed) above

SMILES | Vo (maximum velocity at zero activator) (Human GGT1 (hGGT) [1]) [mM/min/nM] | V∞ (maximum rate at infinite activator) (Human GGT1 (hGGT) [1]) [mM/min/nM] | maximal fold induction (Human GGT1 (hGGT) [1]; [3]) | maximal fold induction (Human GGT1 (hGGT) [1]; [4]) | Ki (Human GGT1 (hGGT) [2]; [5]) | Ki (Human GGT1 (hGGT) [2]; [6]) [µM] | Ki (hGGT; GSH hydrolysis, Table 5) [µM] | Ki (Human GGT1 (hGGT) [2]; [7]) [µM] | Ki (Human GGT1 (hGGT) [2]; [8]) [µM] | other results
O=[N+]([O-])c1ccc(S(=O)(=O)Nc2nnc(Cc3cccc(Cl)c3)s2)cc1 [Compound 15] | 1.30 ± 0.01 | 5.86 ± 0.23 | 4.51 ± 0.05 | 3 to 6 | 43.8 ± 7.7 µM | 119 ± 7.1 | – | – | – | fold change in L-GpNA Kii (transpeptidation) relative to Compound 16 (Human GGT1 (hGGT) [2]): 2 fold
O=[N+]([O-])c1ccc(S(=O)(=O)Nc2nnc(Cc3ccc(Cl)cc3)s2)cc1 [Compound 16] | 1.71 ± 0.09 | 7.70 ± 0.46 | 4.5 ± 0.63 | 3 to 6 | 44.4 ± 3.4 µM | 61.9 | – | – | – | Ki (Human GGT1 (hGGT) [2]; Table 7, read-out: L-GpNA with GlyGly Kii): 62 ± 2 µM
Cc1ccc(Cc2nnc(NS(=O)(=O)c3ccc([N+](=O)[O-])cc3)s2)cc1 [Compound 17] | 2.62 ± 0.79 | 11.25 ± 4.27 | 4.29 ± 2.2 | 3 to 6 | 56.9 ± 8.3 µM | 113 ± 5.2 | – | – | – | –
Cc1cccc(Cc2nnc(NS(=O)(=O)c3ccc([N+](=O)[O-])cc3)s2)c1 [Compound 18] | 1.15 ± 0.01 | 5.08 ± 0.20 | 4.42 ± 0.64 | 3 to 6 | 34.3 ± 0.9 µM | 121 ± 8.8 | – | – | – | fold change in L-GpNA Kii (transpeptidation) relative to Compound 16 (Human GGT1 (hGGT) [2]): 2 fold
O=[N+]([O-])c1ccc(S(=O)(=O)Nc2nnc(Cc3ccc(F)cc3)s2)cc1 [Compound 19] | 1.53 ± 0.09 | 5.39 ± 0.28 | 3.52 ± 0.6 | 3 to 6 | 31.8 ± 0.7 µM | – | – | – | – | –
O=[N+]([O-])c1ccc(S(=O)(=O)Nc2nnc(Cc3ccc(Cl)c(Cl)c3)s2)cc1 [Compound 20] | – | – | – | – | 10 µM and 10.3 µM | – | – | – | – | Ki (Human GGT1 (hGGT) [1]; read-out: D-GpNA Kii, Compound 20, Table 7): 78 ± 2 µM; Ki (Human GGT1 (hGGT) [1]; read-out: Kii with D-GpNA, competitive inhibition of the hydrolysis reaction, Compound 20, competitive vs D-GpNA): 78 µM and 78.2 µM; Ki (hGGT; Compound 20, inhibition of GSH hydrolysis, Table 7): 859 ± 83 µM
COc1ccc(Cc2nnc(NS(=O)(=O)c3ccc(N)cc3)s2)cc1 [Compound 21] | – | – | – | – | – | – | – | – | – | Ki (Human GGT1 (hGGT) [1]; read-out: D-GpNA Kii, Table 4): 31 ± 1 µM; Ki (hGGT; GSH hydrolysis, Table 4): 105 ± 14 µM; fold more potent than OU749 in inhibiting GSH hydrolysis (hGGT; relative to OU749): 3.6 fold; Ki (Human GGT1 (hGGT) [2]; Table 4, read-out: GlyGly with L-GpNA Kis): 10 ± 1 µM; Ki (Human GGT1 (hGGT) [2]; Table 4, read-out: L-GpNA with GlyGly Kii): 36 ± 1 µM
Nc1ccc(Cc2nnc(NS(=O)(=O)c3ccc(N)cc3)s2)cc1 [Compound 23] | – | – | – | – | – | – | 102 ± 16 | 15 ± 1 | 181 ± 20 | Ki (Human GGT1 (hGGT) [1]): 29 ± 3 µM
Cc1cccc(Cc2nnc(NS(=O)(=O)c3ccc(N)cc3)s2)c1 [Compound 24] | – | – | – | – | – | – | 121 ± 5 | 30 ± 5 | 129 ± 17 | Ki (Human GGT1 (hGGT) [1]; read-out: D-GpNA Kii, Table 5): 109 ± 4 µM
Nc1ccc(S(=O)(=O)Nc2nnc(Cc3ccccc3)s2)cc1 [Compound 25] | – | – | – | – | – | – | 242 ± 6 | 42 ± 2 | 74 ± 4 | Ki (Human GGT1 (hGGT) [1]): 58 ± 6 µM
Nc1ccc(S(=O)(=O)Nc2nnc(Cc3ccc(F)cc3)s2)cc1 [Compound 26] | – | – | – | – | – | – | 355 ± 16 | 47 ± 7 | 58 ± 4 | Ki (Human GGT1 (hGGT) [1]): 24 ± 2 µM
NS(=O)(=O)c1ccccc1.[Na] [SBS, Sodium benzenesulfonamide, reference compound] | – | – | – | – | – | – | – | – | – | fold less effective than OU749 in inhibiting hydrolysis of D-GpNA (Human GGT1 (hGGT) [1]; relative to OU749): more than 2.000 fold; Ki (Human GGT1 (hGGT) [2]; SBS, read-out: Kii, transpeptidation, vs L-GpNA): 28800 ± 1600 µM; Ki (Human GGT1 (hGGT) [2]; SBS, read-out: Kis, transpeptidation, vs GlyGly): 2280 ± 70 µM
N[C@H](C(=O)O)[C@@H]1CC(Cl)=NO1 [acivicin, reference compound] | – | – | – | – | – | – | – | – | – | kon (Human GGT1 (hGGT) [1]; pH 7.4, read-out: kon (second order rate constant)): 2.85 M⁻¹ s⁻¹; kon (Human GGT1 (hGGT) [1]; pH 7.4, read-out: kon corrected for the presence of D-GpNA): 8 M⁻¹ s⁻¹
